ChEMBL document CHEMBL1150743, “Anti-inflammatory activity of benzoxazinoids from roots of Coix lachryma-jobi var. ma-yuen” (1988)

tested on: Mast cell; assay: Antiinflammatory activity in Wistar rat peritoneal mast cells assessed as inhibition of concanavalin A-induced histamine release treated 10 mins before concanavalin A challenge measured after 30 mins; format: functional

Structure (SMILES)	ID50
C[C@]12CCC(=O)C=C1CC[C@@H]1[C@@H]2[C@@H](O)C[C@@]2(C)[C@H]1CC[C@]2(O)C(=O)CO [HYDROCORTISONE]	5 ×10⁻⁵ M
COc1ccc2[nH]c(=O)oc2c1 [COIXOL]	1 ×10⁻³ M
COc1ccc2c(c1)c(CC(=O)O)c(C)n2C(=O)c1ccc(Cl)cc1 [INDOMETHACIN]	8 ×10⁻⁴ M
O=C(O)[C@H]1O[C@@H](Oc2cc3oc(-c4ccccc4)cc(=O)c3c(O)c2O)[C@H](O)[C@@H](O)[C@@H]1O [BAICALIN]	3 ×10⁻⁶ M
COc1ccc2c(c1)OC(O)C(=O)N2 (racemic)	6 ×10⁻⁵ M
